Read-outs that look alike come from different tables or passages of the source.
Legend:
[1] = tested on: Escherichia coli ATCC 25922; test: Luminescence of culture samples after addition of Compound Va with 15% v/v ethanol; format: cell-based; conditions: for Signal to noise ratio, LB1:20 (to sterile) / RLU, 6 h LB / RLU, 6 h LB1:20: E.c.; for RLU, 6 h LB / RLU, 6 h LB1:20: 20 μM, 15% v/v ethanol, 9-10 min after addition
Method: (§1) Escherichia coli ATCC 25922 (E.c., beta-galactosidase positive) and Salmonella Enteritidis RKI 05/07992 (S.E., beta-galactosidase negative) were cultivated in Nutrient Broth for 17 h and then serially diluted in sterile saline (0.9% NaCl). Diluted cell suspensions were inoculated 1:100 v/v in test tubes with either full-strength LB medium (10 g/L tryptone, 5 g/L yeast extract, 5 g/L NaCl) or LB medium diluted 1:20 v/v with ultrapure water (LB1:20). All media contained 1 mM IPTG for induction of beta-galactosidase. Sterile saline was added to negative control tubes. After 6 h of cultivation at 37° C. and 150 rpm, samples (0.255 mL) were withdrawn from cultures and mixed with 45 μL stock solution of compound Va in ethanol in a white microtiter plate. […] For comparison, the same E. coli strain was pre-cultured and diluted in a similar way and then inoculated in diluted Mueller-Hinton broth (MH1:20, full-strength medium diluted 1:20 v/v with 20 mM phosphate buffer pH 7.2). The medium was supplemented with 1 mM IPTG. After 6 h of cultivation at 37° C. and 150 rpm, culture samples (45 μL) were transferred to a microtiter plate and mixed with 5 μL of 10x lysis reagent which contained 2% w/v dodecyl-trimethylammonium bromide, 1 mM D-Luciferin-6-O-beta-D-galactopyranoside (commercially available, Biosynth Cat. No. L-8600) and 10 mM magnesium chloride. Lysis and reaction with D-Luciferin-6-O-beta-D-galactopyranoside was carried out for 1 h at 37° C. Then 0.2 mL of luciferase assay mix was added (5:1 v/v). The assay mix contained 62.5 mM Tris acetate (pH 7.8), 12.5 mM magnesium sulfate, 2.5 g/L bovine serum albumin, 7.5 mM D/L-cysteine, 1.25 mM ethylene diamine tetraacetate, 25 μM sodium pyrophosphate, 10 g/L cyclodextrin, 1.25 mM adenosine 5-triphosphate and 13.1 μg/mL commercially available Photinus pyralis luciferase (recombinant). Light emission was recorded with a SpectraMax M5 plate reader.

[2] = tested on: Salmonella Enteritidis RKI 05/07992; test: as above; format: cell-based; conditions: S.E., inoculation density 10^6 CFU/mL
Method: as §1

[3] = tested on: Salmonella Enteritidis RKI 05/07992; test: Luminescence of cultures containing D-luciferin-6-O-phenyl-caprylate after mixing with luciferase assay mix; format: cell-based, Salmonella enterica ssp. enterica ser. Enteritidis; conditions: S.E.; for RLU, 6 h: 0.1 mM in Nutrient Broth, first 3 min after luciferase assay mix
Method: D-luciferin-6-O-phenyl-caprylate was synthesized according to procedures known to persons skilled in the art. Salmonella Enteritidis RKI 05/07992 (S.E., Salmonella enterica ssp. enterica ser. Enteritidis, C8 esterase positive) was cultivated in Nutrient Broth (5 g/L peptone, 5 g/L NaCl, 2 g/L […], 1 g/L […], pH 7.4) for 16 h and then serially diluted in sterile saline (0.9% NaCl). Diluted cell suspensions were inoculated 1:100 v/v in test tubes with Nutrient Broth containing 0.1 mM D-luciferin-6-O-phenyl-caprylate. […] Light emission was recorded with a plate reader equipped with a luminescence detection system. Mean RLU (relative light unit) values of first 3 min after addition of luciferase assay mix were compared (Table VII).

[4] = tested on: Klebsiella pneumoniae RKI 92/08 (KPC-2); format: cell-based; conditions: K.p.-Imp^R; for RLU max. (with 10 μM VI): 6 h culture, 30 min recording
Method: (§2) Carbapenem resistant bacterial strains Pseudomonas aeruginosa RKI 48/09 (IMP-2) (P.a.-Imp^R) and Klebsiella pneumoniae RKI 92/08 (KPC-2) (K.p.-Imp^R) were cultivated on trypticase soy agar supplemented with 8 mg/L and […] imipenem, respectively. Carbapenem sensitive strain Escherichia coli ATCC 25922 (E.c.) was cultivated on trypticase soy agar. Nutrient broth (for composition and pH see previous examples, 3 mL in 15 mL tubes) with and without imipenem was inoculated with imipenem resistant and sensitive bacteria from agar plates. Tube cultures were incubated for 6 h at 37° C. and 150 rpm. Culture samples (0.255 mL) were transferred to wells of a white microtiter plate and mixed with 45 μL stock solution of compound Vila in ethanol. Final concentrations of compound Vila, ethanol and dimethyl sulfoxide were 10 μM, […] and 1% v/v, respectively. Luminescence was recorded after addition of […] for 30 min with a plate reader.

[5] = tested on: Pseudomonas aeruginosa RKI 48/09 (IMP-2); format: cell-based; conditions: P.a.-Imp^R; for RLU max. (with 10 μM VI): 6 h culture, 30 min recording
Method: as §2

[6] = tested on: Escherichia coli ATCC 25922; test: Luminescence of culture samples of carbapenem resistant and sensitive bacteria after addition of compound VIIa; format: cell-based; conditions: E.c.; for RLU max. (with 10 μM VI): 6 h culture, 30 min recording
Method: as §2

[7] = tested on: Escherichia coli ATCC 25922; conditions: E.c.; for Signal to noise ratio (to sterile): MH1:20; for RLU, 6 h MH1:20: first two minutes of measurement
Method: as §1

[8] = inoculation density 10^2 CFU/mL
[9] = inoculation density 10^3 CFU/mL
[10] = inoculation density 10^4 CFU/mL
[11] = inoculation density 10^5 CFU/mL
[12] = inoculation density 10^6 CFU/mL
[13] = 20 μM, 15% v/v ethanol, 9-10 min after addition
[14] = imipenem 4 mg/L in nutrient broth

COC(=O)/C=C/c1ccc(C2(OC)OOC23C2CC4CC(C2)CC3C4)c(Cl)c1OCc1ccc(OC2OC(CO)C(O)C(O)C2O)cc1 (centres unmarked) [Compound Va]
Signal to noise ratio, LB1:20 (to sterile) [1, 8]: 14 | RLU, 6 h LB [1, 8]: 551 RLU | RLU, 6 h LB1:20 [1, 8]: 1369 RLU | Signal to noise ratio, LB1:20 (to sterile) [1, 9]: 79 | RLU, 6 h LB [1, 9]: 3317 RLU | RLU, 6 h LB1:20 [1, 9]: 7690 RLU | Signal to noise ratio, LB1:20 (to sterile) [1, 10]: 1085 | RLU, 6 h LB [1, 10]: 49434 RLU | RLU, 6 h LB1:20 [1, 10]: 105252 RLU | Signal to noise ratio, LB1:20 (to sterile) [1, 11]: 1698 | RLU, 6 h LB [1, 11]: 43412 RLU | RLU, 6 h LB1:20 [1, 11]: 164721 RLU | Signal to noise ratio, LB1:20 (to sterile) [1, 12]: 871 | RLU, 6 h LB [1, 12]: 18830 RLU | RLU, 6 h LB1:20 [1, 12]: 84511 RLU | signal to noise ratio higher than with D-Luciferin-6-O-beta-D-galactopyranoside ([1]; lowest tested inoculation density of E. coli, 5-fold lower working concentration): 9 fold | Signal to noise ratio, LB1:20 (to sterile) [2]: 1 | RLU, 6 h LB [2, 13]: 66 RLU | RLU, 6 h LB1:20 [2, 13]: 125 RLU

CCCCCCCC(=O)Oc1ccc(COc2ccc3nc(C4=N[C@@H](C(=O)O)CS4)sc3c2)cc1 [D-luciferin-6-O-phenyl-caprylate]
Signal to noise ratio (to sterile) [3, 8]: 1.1 | RLU, 6 h [3, 8]: 18354 RLU | Signal to noise ratio (to sterile) [3, 10]: 1.6 | RLU, 6 h [3, 10]: 27783 RLU | Signal to noise ratio (to sterile) [3, 12]: 24 | RLU, 6 h [3, 12]: 417195 RLU

C[C@@H](O)[C@H]1C(=O)N2C(C(=O)O)=C(SCCN=CN)C[C@H]12 [Imipenem, imipenem, reference compound]
OD600 6 h [4, 14]: 0.50 | OD600 6 h ([5]; imipenem 8 mg/L in nutrient broth): 0.48 | OD600 6 h [6, 14]: 0.01

COC(=O)/C=C/c1ccc(C2(OC)OOC23C2CC4CC(C2)CC3C4)c(Cl)c1OCc1ccc(C2=C(C(=O)O)N3C(=O)[C@H]([C@@H](C)O)[C@H]3[C@H]2C)cc1 (stereo partly drawn) [VIIa, (4S,5R,6S)-3-(4-((2-Chloro-6-((E)-3-methoxy-3-oxoprop-1-en-1-yl)-3-((1r,3r,5S,7S)-4′-methoxyspiro[adamantane-2,3′-[1,2]dioxetan]-4′-yl)phenoxy)methyl)phenyl)-6-((R)-1-hydroxyethyl)-4-methyl-7-oxo-1-azabicyclo[3.2.0]hept-2-ene-2-carboxylicacid]
Signal to noise ratio (to E.c.) ([4]; imipenem 0 mg/L): 8.9 | RLU max. (with 10 μM VI) ([4]; imipenem 0 mg/L): 72951 RLU | Signal to noise ratio (to E.c.) ([4]; imipenem 4 mg/L): 8.8 | RLU max. (with 10 μM VI) ([4]; imipenem 4 mg/L): 72272 RLU | Signal to noise ratio (to E.c.) ([5]; imipenem 0 mg/L): 2.4 | RLU max. (with 10 μM VI) ([5]; imipenem 0 mg/L): 19940 RLU | Signal to noise ratio (to E.c.) ([5]; imipenem 8 mg/L): 2.6 | RLU max. (with 10 μM VI) ([5]; imipenem 8 mg/L): 21028 RLU | RLU max. (with 10 μM VI) ([6]; imipenem 0 mg/L): 8181 RLU | RLU max. (with 10 μM VI) ([6]; imipenem 4 mg/L): 7992 RLU

D-Luciferin-6-O-beta-D-galactopyranoside
Signal to noise ratio (to sterile) [7, 8]: 1.5 | RLU, 6 h MH1:20 [7, 8]: 13367 RLU | Signal to noise ratio (to sterile) [7, 10]: 377 | RLU, 6 h MH1:20 [7, 10]: 3306967 RLU | Signal to noise ratio (to sterile) [7, 12]: 544 | RLU, 6 h MH1:20 [7, 12]: 4777613 RLU
